# Experimental data from ChEMBL document CHEMBL4152312, “Identification of fused pyrimidines as interleukin 17 secretion inhibitors” (Eur J Med Chem, 2018).
# Experiments:
# [1] = molecular target: Vascular endothelial growth factor receptor 2 (Homo sapiens) (UniProt P35968); assay: Inhibition of recombinant human His-tagged KDR cytoplasmic domain (789 to 1356 residues) expressed in baculovirus expression system at 500 nM by Z-LYTE assay relative to control
# [2] = molecular target: Tyrosine-protein kinase ABL1 (Homo sapiens) (UniProt P00519); assay: Inhibition of recombinant human full length His-tagged ABL1 expressed in baculovirus expression system at 500 nM by Z-LYTE assay relative to control
# [3] = molecular target: PI3K p110 beta/p85 alpha (Homo sapiens) (UniProt P27986+P42338); assay: Inhibition of PI3K p110beta/p85alpha (unknown origin) at 500 nM by Z-LYTE assay relative to control; type: protein-complex assay
# [4] = molecular target: Hepatocyte growth factor receptor (Homo sapiens) (UniProt P08581); assay: Inhibition of recombinant truncated human His-tagged MET expressed in mammalian expression system at 500 nM by Z-LYTE assay relative to control
# [5] = molecular target: Glycogen synthase kinase-3 beta (Homo sapiens) (UniProt P49841); assay: Inhibition of recombinant full-length human His-tagged GSK3beta expressed in baculovirus expression system at 500 nM by Z-LYTE assay relative to control
# [6] = molecular target: PI3-kinase p110-delta/p85-alpha (Homo sapiens) (UniProt P27986+O00329); assay: Inhibition of PI3K p110delta/p85alpha (unknown origin) at 500 nM by Z-LYTE assay relative to control; type: protein-complex assay
# [7] = molecular target: Rho-associated protein kinase 2 (Homo sapiens) (UniProt O75116); assay: Inhibition of recombinant human N-terminal GST-tagged ROCK2 cytoplasmic domain (1 to 552 residues) expressed in baculovirus expression system at 500 nM by Z-LYTE assay relative to control
# [8] = molecular target: T1, Dual specificity mitogen-activated protein kinase kinase 6 (Homo sapiens) (UniProt P52564); assay: Inhibition of recombinant human full length His-tagged MKK6 expressed in baculovirus expression system at 500 nM by Z-LYTE assay relative to control
# T1 sequence (whole entry): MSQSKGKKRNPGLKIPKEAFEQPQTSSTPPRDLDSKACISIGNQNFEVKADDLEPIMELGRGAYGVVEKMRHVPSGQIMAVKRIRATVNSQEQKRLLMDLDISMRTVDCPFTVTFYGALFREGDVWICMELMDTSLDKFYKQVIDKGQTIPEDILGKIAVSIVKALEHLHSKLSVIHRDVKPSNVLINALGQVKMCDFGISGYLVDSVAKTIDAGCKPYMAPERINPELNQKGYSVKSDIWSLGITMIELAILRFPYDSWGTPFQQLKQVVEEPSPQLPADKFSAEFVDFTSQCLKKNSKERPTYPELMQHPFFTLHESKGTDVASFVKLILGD
# [9] = molecular target: Rho-associated protein kinase 1 (Homo sapiens) (UniProt Q13464); assay: Inhibition of recombinant human GST-tagged ROCK1 cytoplasmic domain expressed in baculovirus expression system at 500 nM by Z-LYTE assay relative to control
# [10] = molecular target: Receptor tyrosine-protein kinase erbB-2 (Homo sapiens) (UniProt P04626); assay: Inhibition of recombinant human His-tagged ERBB2 cytoplasmic domain expressed in baculovirus expression system at 500 nM by Z-LYTE assay relative to control
# [11] = molecular target: Mitogen-activated protein kinase 11 (Homo sapiens) (UniProt Q15759); assay: Inhibition of recombinant human full length His-tagged p38-beta expressed in baculovirus expression system at 500 nM by Z-LYTE assay relative to control
# [12] = molecular target: Protein kinase C alpha type (Homo sapiens) (UniProt P17252); assay: Inhibition of recombinant human full length untagged PKCalpha expressed in baculovirus expression system at 500 nM by Z-LYTE assay relative to control
# [13] = molecular target: Dual specificity mitogen-activated protein kinase kinase 1 (Homo sapiens) (UniProt Q02750); assay: Inhibition of recombinant human full length His-tagged MEK1 expressed in baculovirus expression system at 500 nM by Z-LYTE assay relative to control
# PBMC = assay: Cytotoxicity against human PBMC assessed as induction of cell death by cell Titer-Glo assay; type: cell-based
# [14] = molecular target: Serine/threonine-protein kinase PAK 2 (Homo sapiens) (UniProt Q13177); assay: Inhibition of recombinant human full length GST-tagged PAK2 expressed in baculovirus expression system at 500 nM by Z-LYTE assay relative to control
# [15] = molecular target: Platelet-derived growth factor receptor alpha (Homo sapiens) (UniProt P16234); assay: Inhibition of recombinant human GST-tagged PDGFRalpha cytoplasmic domain (550 to 1089 residues) expressed in baculovirus expression system at 500 nM by Z-LYTE assay relative to control
# [16] = molecular target: Proto-oncogene tyrosine-protein kinase Src (Homo sapiens) (UniProt P12931); assay: Inhibition of human full length Src expressed in baculovirus expression system at 500 nM by Z-LYTE assay relative to control
# [17] = molecular target: T2, Inhibitor of nuclear factor kappa-B kinase subunit epsilon (Homo sapiens) (UniProt Q14164); assay: Inhibition of recombinant full-length human GST-tagged IKKepsilon expressed in baculovirus expression system at 500 nM by Z-LYTE assay relative to control
# T2 sequence (whole entry): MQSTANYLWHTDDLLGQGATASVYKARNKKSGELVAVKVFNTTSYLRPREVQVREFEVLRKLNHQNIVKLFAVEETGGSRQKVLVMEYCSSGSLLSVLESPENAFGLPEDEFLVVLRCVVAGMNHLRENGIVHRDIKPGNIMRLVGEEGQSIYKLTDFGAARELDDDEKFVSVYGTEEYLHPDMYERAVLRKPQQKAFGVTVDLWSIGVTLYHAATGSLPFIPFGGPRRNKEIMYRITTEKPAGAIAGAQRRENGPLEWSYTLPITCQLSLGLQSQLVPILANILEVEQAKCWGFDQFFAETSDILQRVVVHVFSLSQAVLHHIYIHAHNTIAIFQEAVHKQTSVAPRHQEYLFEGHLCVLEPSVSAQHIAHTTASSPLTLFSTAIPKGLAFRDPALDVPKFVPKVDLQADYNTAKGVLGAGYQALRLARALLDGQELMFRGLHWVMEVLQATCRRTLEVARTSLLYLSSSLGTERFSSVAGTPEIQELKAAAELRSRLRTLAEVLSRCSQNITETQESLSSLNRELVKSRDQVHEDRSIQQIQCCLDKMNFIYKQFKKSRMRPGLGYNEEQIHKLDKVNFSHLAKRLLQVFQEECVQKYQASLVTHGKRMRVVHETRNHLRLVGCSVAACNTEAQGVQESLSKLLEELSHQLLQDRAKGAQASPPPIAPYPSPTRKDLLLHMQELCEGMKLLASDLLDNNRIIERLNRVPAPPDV
# [18] = molecular target: Tyrosine-protein kinase Lyn (Homo sapiens) (UniProt P07948); assay: Inhibition of recombinant human full-length N-terminal GST-tagged LYN-A expressed in insect cells at 500 nM by Z-LYTE assay relative to control
# [19] = molecular target: Mitogen-activated protein kinase 8 (Homo sapiens) (UniProt P45983); assay: Inhibition of recombinant human full length His-tagged JNK1 expressed in baculovirus expression system at 500 nM by Z-LYTE assay relative to control
# Chain of Mitogen-activated protein kinase 8 (Homo sapiens) (P45983 whole entry): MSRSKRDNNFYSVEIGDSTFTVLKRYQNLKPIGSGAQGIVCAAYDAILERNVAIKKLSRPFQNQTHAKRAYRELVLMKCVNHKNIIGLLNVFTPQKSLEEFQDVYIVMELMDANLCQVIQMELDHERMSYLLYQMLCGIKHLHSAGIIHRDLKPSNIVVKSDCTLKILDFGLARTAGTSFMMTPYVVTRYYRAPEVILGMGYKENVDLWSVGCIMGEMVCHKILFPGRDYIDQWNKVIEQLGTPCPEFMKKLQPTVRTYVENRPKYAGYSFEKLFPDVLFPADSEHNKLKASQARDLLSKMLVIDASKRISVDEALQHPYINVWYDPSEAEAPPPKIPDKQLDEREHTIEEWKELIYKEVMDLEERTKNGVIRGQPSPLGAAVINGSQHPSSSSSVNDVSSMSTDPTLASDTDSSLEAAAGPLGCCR
# Chain of Proto-oncogene tyrosine-protein kinase Src (Homo sapiens) (P12931 2-536 limits assumed): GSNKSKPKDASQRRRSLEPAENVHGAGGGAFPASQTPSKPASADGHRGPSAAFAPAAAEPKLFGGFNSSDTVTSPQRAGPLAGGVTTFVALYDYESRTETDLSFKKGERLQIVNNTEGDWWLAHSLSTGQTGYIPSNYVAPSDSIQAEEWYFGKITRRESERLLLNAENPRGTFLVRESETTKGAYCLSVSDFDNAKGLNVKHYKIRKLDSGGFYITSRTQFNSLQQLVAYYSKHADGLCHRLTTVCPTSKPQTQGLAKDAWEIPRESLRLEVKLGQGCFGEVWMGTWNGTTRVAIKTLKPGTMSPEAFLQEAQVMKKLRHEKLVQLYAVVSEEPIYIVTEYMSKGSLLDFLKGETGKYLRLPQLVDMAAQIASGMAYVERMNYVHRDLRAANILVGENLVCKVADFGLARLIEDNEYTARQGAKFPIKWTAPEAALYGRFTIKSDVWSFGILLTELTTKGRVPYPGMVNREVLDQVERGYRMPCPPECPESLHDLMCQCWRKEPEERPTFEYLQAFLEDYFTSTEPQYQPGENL
# Chain of PI3K p110 beta/p85 alpha (Homo sapiens) (P27986 2-724 limits assumed): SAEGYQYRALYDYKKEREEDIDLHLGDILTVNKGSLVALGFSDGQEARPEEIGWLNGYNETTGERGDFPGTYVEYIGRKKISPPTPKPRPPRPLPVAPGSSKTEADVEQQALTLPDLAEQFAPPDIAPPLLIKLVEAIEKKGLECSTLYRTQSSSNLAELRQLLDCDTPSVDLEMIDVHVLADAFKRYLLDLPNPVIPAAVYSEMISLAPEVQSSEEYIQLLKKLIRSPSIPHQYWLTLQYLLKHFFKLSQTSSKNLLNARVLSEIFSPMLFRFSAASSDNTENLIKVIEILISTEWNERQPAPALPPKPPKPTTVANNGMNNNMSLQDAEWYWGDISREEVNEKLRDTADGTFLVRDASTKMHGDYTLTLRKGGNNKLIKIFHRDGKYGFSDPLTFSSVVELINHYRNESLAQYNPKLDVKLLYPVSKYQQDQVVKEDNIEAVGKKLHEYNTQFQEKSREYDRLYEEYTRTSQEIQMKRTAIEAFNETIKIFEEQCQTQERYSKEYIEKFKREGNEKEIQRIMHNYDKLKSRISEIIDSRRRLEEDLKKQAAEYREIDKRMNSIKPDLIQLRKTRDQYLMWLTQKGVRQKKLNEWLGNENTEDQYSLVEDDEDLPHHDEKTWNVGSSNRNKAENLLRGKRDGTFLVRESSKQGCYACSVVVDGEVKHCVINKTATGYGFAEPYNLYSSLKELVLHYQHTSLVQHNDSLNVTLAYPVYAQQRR
# Chain of PI3K p110 beta/p85 alpha (Homo sapiens) (P42338 whole entry partner, the tested form may be a part): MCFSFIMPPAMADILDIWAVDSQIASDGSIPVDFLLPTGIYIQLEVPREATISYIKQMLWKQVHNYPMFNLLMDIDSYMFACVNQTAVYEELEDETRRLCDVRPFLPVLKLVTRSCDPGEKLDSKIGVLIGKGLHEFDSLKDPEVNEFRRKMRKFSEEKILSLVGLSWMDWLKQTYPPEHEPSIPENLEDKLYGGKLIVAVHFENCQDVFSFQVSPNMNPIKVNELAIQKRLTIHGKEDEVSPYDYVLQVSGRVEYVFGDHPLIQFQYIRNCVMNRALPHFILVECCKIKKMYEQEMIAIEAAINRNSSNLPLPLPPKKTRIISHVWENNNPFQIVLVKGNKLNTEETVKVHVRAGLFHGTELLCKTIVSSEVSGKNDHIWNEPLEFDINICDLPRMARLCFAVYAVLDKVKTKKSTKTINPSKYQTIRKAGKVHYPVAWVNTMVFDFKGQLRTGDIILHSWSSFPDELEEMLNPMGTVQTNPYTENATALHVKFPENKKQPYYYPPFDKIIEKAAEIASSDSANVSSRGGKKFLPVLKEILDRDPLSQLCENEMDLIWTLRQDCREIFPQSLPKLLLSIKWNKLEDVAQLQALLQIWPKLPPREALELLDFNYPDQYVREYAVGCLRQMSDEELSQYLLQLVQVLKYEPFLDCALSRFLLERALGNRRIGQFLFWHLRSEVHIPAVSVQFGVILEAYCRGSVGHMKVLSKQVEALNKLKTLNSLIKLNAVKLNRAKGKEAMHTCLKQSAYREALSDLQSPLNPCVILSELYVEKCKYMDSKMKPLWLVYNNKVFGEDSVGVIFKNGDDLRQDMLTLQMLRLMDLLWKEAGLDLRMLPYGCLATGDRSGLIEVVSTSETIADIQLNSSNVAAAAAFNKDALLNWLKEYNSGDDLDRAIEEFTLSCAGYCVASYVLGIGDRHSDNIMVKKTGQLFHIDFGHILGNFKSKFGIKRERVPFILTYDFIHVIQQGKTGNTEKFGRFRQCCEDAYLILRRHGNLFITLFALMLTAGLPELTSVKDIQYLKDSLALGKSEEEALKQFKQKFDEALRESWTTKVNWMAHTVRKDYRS
# Chain of Tyrosine-protein kinase ABL1 (Homo sapiens) (P00519 whole entry): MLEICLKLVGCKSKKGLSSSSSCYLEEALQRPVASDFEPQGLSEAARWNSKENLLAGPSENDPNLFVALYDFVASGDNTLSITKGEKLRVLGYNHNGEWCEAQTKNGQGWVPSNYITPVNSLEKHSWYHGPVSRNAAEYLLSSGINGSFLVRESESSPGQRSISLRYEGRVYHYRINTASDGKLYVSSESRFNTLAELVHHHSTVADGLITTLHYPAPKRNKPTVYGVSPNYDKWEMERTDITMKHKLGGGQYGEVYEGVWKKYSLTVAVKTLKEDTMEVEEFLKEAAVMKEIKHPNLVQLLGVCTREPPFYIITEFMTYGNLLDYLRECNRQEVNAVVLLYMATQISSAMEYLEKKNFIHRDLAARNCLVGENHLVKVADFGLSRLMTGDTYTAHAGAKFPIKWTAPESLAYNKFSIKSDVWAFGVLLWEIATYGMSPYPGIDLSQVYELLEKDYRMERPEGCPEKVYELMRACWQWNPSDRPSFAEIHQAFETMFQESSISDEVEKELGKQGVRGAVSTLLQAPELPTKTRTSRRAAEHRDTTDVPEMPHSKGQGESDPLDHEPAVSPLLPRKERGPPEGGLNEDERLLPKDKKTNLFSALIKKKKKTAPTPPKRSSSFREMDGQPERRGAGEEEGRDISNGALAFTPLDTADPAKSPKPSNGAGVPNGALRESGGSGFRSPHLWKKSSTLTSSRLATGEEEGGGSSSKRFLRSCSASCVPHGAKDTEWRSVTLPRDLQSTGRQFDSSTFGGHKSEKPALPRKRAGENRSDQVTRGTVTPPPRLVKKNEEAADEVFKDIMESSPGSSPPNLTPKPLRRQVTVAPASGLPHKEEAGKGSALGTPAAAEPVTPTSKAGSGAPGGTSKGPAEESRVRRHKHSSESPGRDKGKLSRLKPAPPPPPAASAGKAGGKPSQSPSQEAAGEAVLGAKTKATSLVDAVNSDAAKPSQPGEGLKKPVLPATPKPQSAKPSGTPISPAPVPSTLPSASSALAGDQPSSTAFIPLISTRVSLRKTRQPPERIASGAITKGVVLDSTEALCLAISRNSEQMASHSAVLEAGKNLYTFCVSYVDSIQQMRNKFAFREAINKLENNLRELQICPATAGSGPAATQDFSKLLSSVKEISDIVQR
# Chain of Tyrosine-protein kinase Lyn (Homo sapiens) (P07948 2-512 limits assumed): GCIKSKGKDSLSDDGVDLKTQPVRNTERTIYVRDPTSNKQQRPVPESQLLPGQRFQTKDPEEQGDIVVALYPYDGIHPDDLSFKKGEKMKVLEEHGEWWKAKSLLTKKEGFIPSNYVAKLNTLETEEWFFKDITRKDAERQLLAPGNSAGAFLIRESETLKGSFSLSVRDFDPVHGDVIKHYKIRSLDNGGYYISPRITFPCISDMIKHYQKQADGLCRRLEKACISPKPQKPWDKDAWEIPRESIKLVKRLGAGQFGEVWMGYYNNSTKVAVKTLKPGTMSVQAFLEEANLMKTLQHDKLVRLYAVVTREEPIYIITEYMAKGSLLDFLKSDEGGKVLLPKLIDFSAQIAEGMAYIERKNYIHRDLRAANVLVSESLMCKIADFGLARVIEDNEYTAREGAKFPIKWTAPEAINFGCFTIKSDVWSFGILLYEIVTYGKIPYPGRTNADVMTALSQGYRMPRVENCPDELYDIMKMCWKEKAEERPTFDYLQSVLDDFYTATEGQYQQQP
# Chain of Mitogen-activated protein kinase 11 (Homo sapiens) (Q15759 whole entry): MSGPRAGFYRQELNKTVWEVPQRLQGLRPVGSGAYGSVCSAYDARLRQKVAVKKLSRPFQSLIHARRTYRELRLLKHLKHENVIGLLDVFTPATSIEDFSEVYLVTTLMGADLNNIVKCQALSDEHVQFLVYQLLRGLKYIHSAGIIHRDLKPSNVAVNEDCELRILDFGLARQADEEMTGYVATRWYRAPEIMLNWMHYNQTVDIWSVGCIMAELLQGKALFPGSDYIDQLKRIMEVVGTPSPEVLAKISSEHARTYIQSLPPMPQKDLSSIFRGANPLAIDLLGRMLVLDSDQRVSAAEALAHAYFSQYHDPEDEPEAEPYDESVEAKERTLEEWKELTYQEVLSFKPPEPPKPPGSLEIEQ
Structure (SMILES),inhibition [1],inhibition [2],inhibition [3],inhibition [4],inhibition [5],inhibition [6],inhibition [7],inhibition [8],inhibition [9],inhibition [10],inhibition [11],inhibition [12],inhibition [13],IC50 (PBMC),inhibition [14],inhibition [15],inhibition [16],inhibition [17],inhibition [18],inhibition [19]
OCc1ccc(-c2cc3c(N[C@H](CO)c4ccccc4)ncnc3[nH]2)cc1,38%,84%,4%,14%,10%,2%,6%,3%,-1%,48%,6%,6%,10%,> 10 µM,5%,12%,74%,3%,74%,-3%
CN(C)CCn1cc(-c2cccc(O)c2)c2c(N)ncnc21,17%,69%,12%,4%,7%,–,33%,5%,17%,5%,2%,15%,6%,> 10 µM,6%,18%,55%,3%,28%,3%
OC[C@@H](Nc1ncnc2sc(-c3ccc(O)cc3)cc12)c1ccccc1,20%,8%,1%,1%,6%,0%,2%,11%,4%,30%,4%,0%,21%,> 30 µM,5%,0%,–,-1%,21%,19%
CCC(=O)Nc1ccc(-c2c[nH]c3ncnc(N[C@H](C)c4ccccc4)c23)cc1,7%,5%,11%,6%,31%,13%,6%,8%,3%,41%,2%,21%,15%,> 10 µM,5%,8%,16%,-2%,14%,4%
